Values of other authors in PubChem BioAssay AID1259409 (Chemical Carcinogenesis Research Information System (CCRIS), 2018).
Values joined by “and” are separate entries in the source; they are usually repeats but may differ in a detail not shown here. Equal entries are not always repeated.

Tested on: rodent chemically induced tumor inhibition, incidence and multiplicity
Experiment: CCRIS tumor inhibitor studies
Settings: 3817-11-6, Dose [Inhibitor]: 0, Promoter: NONE USED

CC[C@H](C)[C@@H](NC(=O)[C@@H](CCC(=O)O)NC(=O)[C@@H](CO)NC(=O)[C@@H](CO)NC(=O)[C@H](NC(=O)[C@@H](CC(=O)O)NC(=O)[C@H](NC(=O)[C@H](C)NC(=O)[C@H](C)NC(=O)[C@@H](CC(=O)O)NC(=O)[C@@H](CO)NC(=O)[C@H](N)CS)C(C)C)C(C)C)C(=O)N[C@@H](C(=O)N[C@@H](C(=O)N[C@H](CCCCN)C(=O)N[C@H](CC(=O)O)C(=O)N[C@H](CC(C)C)C(=O)N[C@H](CCCCN)C(=O)N[C@H](CCC(=O)O)C(=O)N[C@H](CCCCN)C(=O)N[C@H](CCCCN)C(=O)N[C@H](CCC(=O)O)C(=O)N[C@@H](C(=O)N[C@@H](C(=O)N[C@H](CCC(=O)O)C(=O)N[C@H](CCC(=O)O)C(=O)N[C@@H](C)C(=O)N[C@H](CCC(=O)O)C(=O)O)C(C)C)C(C)C)C(C)C)[C@H](C)O
tumour outcome (control, treated, inhibition, significance) (Carcinogen: N-BUTYL-N-(4-HYDROXYBUTYL)NITROSAMINE, 30 UG THYMOSIN FRACTION 5 IN 100 µL SALINE INJECTED INTO RIGHT THIGH 2/WK FOR 20 WK (STUDY DURATION: 20 WK), Route [Inhibitor]: INTRAMUSCULAR, Species: MOUSE, Strain/Sex: C3H/HEJ/FEMALE, Target Tissue: Type of Lesion: BLADDER: CARCINOMA, Dose [Carcinogen]: 0.05% (W/V) SOLUTION IN DRINKING WATER WITH 0.001% (W/V) TWEEN 80 FOR 20 WK): 6/11 (55%), 2/11 (18%), 67%, not significant | tumour outcome (control, treated, inhibition, significance) (Carcinogen: N-BUTYL-N-(4-HYDROXYBUTYL)NITROSAMINE, 30 UG THYMOSIN FRACTION 5 IN 100 µL SALINE INJECTED INTO RIGHT THIGH 2/WK FOR 25 WK (STUDY DURATION: 25 WK), Route [Inhibitor]: INTRAMUSCULAR, Species: MOUSE, Strain/Sex: C3H/HEJ/FEMALE, Target Tissue: Type of Lesion: BLADDER: CARCINOMA, Dose [Carcinogen]: 0.05% (W/V) SOLUTION IN DRINKING WATER WITH 0.001% (W/V) TWEEN 80 FOR 25 WK): 9/16 (56%), 8/13 (62%), -11%, not significant | tumour outcome (control, treated, inhibition, significance) (Carcinogen: N-BUTYL-N-(4-HYDROXYBUTYL)NITROSAMINE, 600 UG THYMOSIN FRACTION 5 2/WK FOR 12 WK BEGINNING POST CARCINOGEN TREATMENT (STUDY DURATION: 20 WK), Route [Inhibitor]: SUBCUTANEOUS, Species: MOUSE, Strain/Sex: NON/SHI/MALE, Target Tissue: Type of Lesion: RENAL PELVIS: CARCINOMA, Dose [Carcinogen]: 0.05% IN DRINKING WATER FOR 8 WK): 3/31 (10%), 5/32 (16%), -60%, not significant and 7/29 (24%), 7/29 (24%), 0%, not significant | tumour outcome (control, treated, inhibition, significance) (Carcinogen: N-BUTYL-N-(4-HYDROXYBUTYL)NITROSAMINE, 600 UG THYMOSIN FRACTION 5 2/WK FOR 12 WK BEGINNING POST CARCINOGEN TREATMENT (STUDY DURATION: 20 WK), Route [Inhibitor]: SUBCUTANEOUS, Species: MOUSE, Strain/Sex: NON/SHI/MALE, Target Tissue: Type of Lesion: URINARY BLADDER: CARCINOMA, Dose [Carcinogen]: 0.05% IN DRINKING WATER FOR 8 WK): 25/31 (81%), 15/32 (47%), 42%, p<0.01 and 19/29 (66%), 23/29 (79%), -20%, not significant | tumour outcome (control, treated, inhibition, significance) (Carcinogen: N-BUTYL-N-(4-HYDROXYBUTYL)NITROSAMINE, 600 UG THYMOSIN FRACTION 5 IN 100 µL SALINE INJECTED INTO RIGHT THIGH 2/WK FOR 30 WK (STUDY DURATION: 30 WK), Route [Inhibitor]: INTRAMUSCULAR, Species: RAT, Strain/Sex: WISTAR/FEMALE, Target Tissue: Type of Lesion: BLADDER: CARCINOMA, Dose [Carcinogen]: 0.025% (W/V) SOLUTION IN DRINKING WATER WITH 0.0005% (W/V) TWEEN 80 FOR 30 WK): 9/11 (82%), 2/11 (18%), 78%, p<0.05 | tumour outcome (control, treated, inhibition, significance) (Carcinogen: PHENACETIN, 62-44-2, N-BUTYL-N-(4-HYDROXYBUTYL)NITROSAMINE, Carcinogen: PHENACETIN, 62-44-2, N-BUTYL-N-(4-HYDROXYBUTYL)NITROSAMINE, 60 UG IN 0.1 ML SALINE 2/WK FOR 6 WK CONCURRENTLY WITH BBN TREATMENT (STUDY DURATION: 30 WK), Route [Inhibitor]: SUBCUTANEOUS, Species: MOUSE, Strain/Sex: NON/SHI/MALE, Target Tissue: Type of Lesion: RENAL PELVIS: CARCINOMA, Dose [Carcinogen]: 2% PHENACETIN IN DIET FOR 8 WK FOLLOWED BY 0.05% BBN IN DRINKING WATER FOR 6 WK): 2/11 (18%), 5/11 (45%), -150%, not significant | tumour outcome (control, treated, inhibition, significance) (Carcinogen: PHENACETIN, 62-44-2, N-BUTYL-N-(4-HYDROXYBUTYL)NITROSAMINE, Carcinogen: PHENACETIN, 62-44-2, N-BUTYL-N-(4-HYDROXYBUTYL)NITROSAMINE, 60 UG IN 0.1 ML SALINE 2/WK FOR 6 WK CONCURRENTLY WITH BBN TREATMENT (STUDY DURATION: 30 WK), Route [Inhibitor]: SUBCUTANEOUS, Species: MOUSE, Strain/Sex: NON/SHI/MALE, Target Tissue: Type of Lesion: URINARY BLADDER: CARCINOMA, Dose [Carcinogen]: 2% PHENACETIN IN DIET FOR 8 WK FOLLOWED BY 0.05% BBN IN DRINKING WATER FOR 6 WK): 2/11 (18%), 2/11 (18%), 0%, not significant | tumour outcome (control, treated, inhibition, significance) (Carcinogen: PHENACETIN, 62-44-2, N-BUTYL-N-(4-HYDROXYBUTYL)NITROSAMINE, Carcinogen: PHENACETIN, 62-44-2, N-BUTYL-N-(4-HYDROXYBUTYL)NITROSAMINE, 60 UG IN 0.1 ML SALINE 2/WK FOR 6 WK CONCURRENTLY WITH BBN TREATMENT (STUDY DURATION: 34 WK), Route [Inhibitor]: SUBCUTANEOUS, Species: MOUSE, Strain/Sex: NON/SHI/MALE, Target Tissue: Type of Lesion: RENAL PELVIS: CARCINOMA, Dose [Carcinogen]: 2% PHENACETIN IN DIET FOR 12 WK FOLLOWED BY 0.05% BBN IN DRINKING WATER FOR 6 WK): 9/20 (45%), 12/19 (63%), -40%, not significant
